Laboratory results: PubChem BioAssay (NCI)
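Where inhibition never reached the appropriate level, the endpoint shown equals the highest concentration tested. Otherwise, values were interpolated linearly from a five-concentration, 48-hour dose response in 96-well plates. TGI marks complete inhibition of growth.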

How the values were obtained:
Assay in all cases: growth of human tumour cells (NCI), 48 h
786-0 renal = tested on: 786-0 renal
A549 NSCLC = tested on: A549 NSCLC
ACHN renal = tested on: ACHN renal
BT-549 breast = tested on: BT-549 breast
CAKI-1 renal = tested on: CAKI-1 renal
CCRF-CEM leukemia = tested on: CCRF-CEM leukemia
COLO 205 colon = tested on: COLO 205 colon
DU-145 prostate = tested on: DU-145 prostate
EKVX NSCLC = tested on: EKVX NSCLC
HCC-2998 colon = tested on: HCC-2998 colon
HCT-116 colon = tested on: HCT-116 colon
HCT-15 colon = tested on: HCT-15 colon
HL-60(TB) leukemia = tested on: HL-60(TB) leukemia
HOP-92 NSCLC = tested on: HOP-92 NSCLC
HS 578T breast = tested on: HS 578T breast
IGROV1 ovarian = tested on: IGROV1 ovarian
K-562 leukemia = tested on: K-562 leukemia
KM12 colon = tested on: KM12 colon
LOX IMVI melanoma = tested on: LOX IMVI melanoma
MALME-3M melanoma = tested on: MALME-3M melanoma
MCF7 breast = tested on: MCF7 breast
MDA-MB-231 breast = tested on: MDA-MB-231 breast
MDA-MB-435 = tested on: MDA-MB-435
MDA-N = tested on: MDA-N
MOLT-4 leukemia = tested on: MOLT-4 leukemia
NCI-H226 lung = tested on: NCI-H226 lung
NCI-H23 lung = tested on: NCI-H23 lung
NCI-H460 lung = tested on: NCI-H460 lung
NCI-H522 lung = tested on: NCI-H522 lung
NCI/ADR-RES ovarian = tested on: NCI/ADR-RES ovarian
OVCAR-3 ovarian = tested on: OVCAR-3 ovarian
OVCAR-4 ovarian = tested on: OVCAR-4 ovarian
OVCAR-5 ovarian = tested on: OVCAR-5 ovarian
PC-3 prostate = tested on: PC-3 prostate
RXF 393 renal = tested on: RXF 393 renal
SF-268 CNS = tested on: SF-268 CNS
SF-539 CNS = tested on: SF-539 CNS
SK-MEL-2 melanoma = tested on: SK-MEL-2 melanoma
SK-MEL-28 melanoma = tested on: SK-MEL-28 melanoma
SK-MEL-5 melanoma = tested on: SK-MEL-5 melanoma
SK-OV-3 ovarian = tested on: SK-OV-3 ovarian
SN12C renal = tested on: SN12C renal
SNB-19 CNS = tested on: SNB-19 CNS
SNB-75 CNS = tested on: SNB-75 CNS
SR leukemia = tested on: SR leukemia
SW-620 colon = tested on: SW-620 colon
T-47D breast = tested on: T-47D breast
TK-10 renal = tested on: TK-10 renal
U251 CNS = tested on: U251 CNS
UACC-62 melanoma = tested on: UACC-62 melanoma
UO-31 renal = tested on: UO-31 renal
A498 renal = tested on: A498 renal
HOP-62 NSCLC = tested on: HOP-62 NSCLC
HT29 colon = tested on: HT29 colon
M14 melanoma = tested on: M14 melanoma
OVCAR-8 ovarian = tested on: OVCAR-8 ovarian
RPMI-8226 leukemia = tested on: RPMI-8226 leukemia
SF-295 CNS = tested on: SF-295 CNS
UACC-257 melanoma = tested on: UACC-257 melanoma

Q: With `CN(C)CCCNC(=O)c1cc(NC(=O)c2cc(NC(=O)c3cc(NC(=O)CCCn4ccc(CO)c4CO)cn3C)cn2C)cn1C` as the compound, how does the TGI (786-0 renal) read?
A: > 100 µM

Q: What about the TGI (A549 NSCLC) of the same compound?
A: 75.4 µM

Q: What about the TGI (ACHN renal) of the same compound?
A: > 100 µM

Q: And the TGI (BT-549 breast)?
A: 7.51 µM

Q: What about the TGI (CAKI-1 renal) of the same compound?
A: > 100 µM

Q: And the TGI (CCRF-CEM leukemia)?
A: > 100 µM

Q: And the TGI (COLO 205 colon)?
A: 53.1 µM

Q: And the TGI (DU-145 prostate)?
A: > 100 µM

Q: And the TGI (EKVX NSCLC)?
A: > 100 µM

Q: And the TGI (HCC-2998 colon)?
A: > 100 µM

Q: And the TGI (HCT-116 colon)?
A: > 100 µM

Q: What about the TGI (HCT-15 colon) of the same compound?
A: > 100 µM

Q: And the TGI (HL-60(TB) leukemia)?
A: > 100 µM

Q: What about the TGI (HOP-92 NSCLC) of the same compound?
A: > 100 µM

Q: And the TGI (HS 578T breast)?
A: 98.2 µM

Q: And the TGI (IGROV1 ovarian)?
A: > 100 µM

Q: And the TGI (K-562 leukemia)?
A: > 100 µM

Q: What about the TGI (KM12 colon) of the same compound?
A: > 100 µM

Q: And the TGI (LOX IMVI melanoma)?
A: > 100 µM

Q: And the TGI (MALME-3M melanoma)?
A: 37.4 µM

Q: What about the TGI (MCF7 breast) of the same compound?
A: > 100 µM

Q: And the TGI (MDA-MB-231 breast)?
A: > 100 µM

Q: And the TGI (MDA-MB-435)?
A: 47.7 µM

Q: What about the TGI (MDA-N) of the same compound?
A: > 100 µM

Q: What about the TGI (MOLT-4 leukemia) of the same compound?
A: > 100 µM

Q: What about the TGI (NCI-H226 lung) of the same compound?
A: 13.9 µM

Q: What about the TGI (NCI-H23 lung) of the same compound?
A: > 100 µM

Q: What about the TGI (NCI-H460 lung) of the same compound?
A: > 100 µM

Q: And the TGI (NCI-H522 lung)?
A: 8.38 µM

Q: What about the TGI (NCI/ADR-RES ovarian) of the same compound?
A: > 100 µM

Q: What about the TGI (OVCAR-3 ovarian) of the same compound?
A: 44.7 µM

Q: And the TGI (OVCAR-4 ovarian)?
A: > 100 µM

Q: And the TGI (OVCAR-5 ovarian)?
A: > 100 µM

Q: What about the TGI (PC-3 prostate) of the same compound?
A: > 100 µM

Q: What about the TGI (RXF 393 renal) of the same compound?
A: 6.24 µM

Q: What about the TGI (SF-268 CNS) of the same compound?
A: > 100 µM

Q: And the TGI (SF-539 CNS)?
A: 33.6 µM

Q: What about the TGI (SK-MEL-2 melanoma) of the same compound?
A: 77 µM

Q: What about the TGI (SK-MEL-28 melanoma) of the same compound?
A: 42.1 µM

Q: And the TGI (SK-MEL-5 melanoma)?
A: 12.7 µM

Q: What about the TGI (SK-OV-3 ovarian) of the same compound?
A: > 100 µM

Q: And the TGI (SN12C renal)?
A: > 100 µM

Q: And the TGI (SNB-19 CNS)?
A: > 100 µM

Q: And the TGI (SNB-75 CNS)?
A: 44.4 µM

Q: What about the TGI (SR leukemia) of the same compound?
A: > 100 µM

Q: What about the TGI (SW-620 colon) of the same compound?
A: > 100 µM

Q: What about the TGI (T-47D breast) of the same compound?
A: > 100 µM

Q: What about the TGI (TK-10 renal) of the same compound?
A: 72.4 µM

Q: And the TGI (U251 CNS)?
A: > 100 µM

Q: And the TGI (UACC-62 melanoma)?
A: 37.9 µM

Q: And the TGI (UO-31 renal)?
A: > 100 µM

Q: How did the TGI (786-0 renal) turn out when `O=C(Nc1ccc2ccccc2c1)Nn1cnnc1` was run?
A: > 100 µM

Q: And the TGI (A498 renal)?
A: > 100 µM

Q: What about the TGI (A549 NSCLC) of the same compound?
A: > 100 µM

Q: And the TGI (ACHN renal)?
A: > 100 µM

Q: And the TGI (BT-549 breast)?
A: > 100 µM

Q: What about the TGI (CAKI-1 renal) of the same compound?
A: > 100 µM

Q: What about the TGI (CCRF-CEM leukemia) of the same compound?
A: > 100 µM

Q: And the TGI (COLO 205 colon)?
A: > 100 µM

Q: And the TGI (DU-145 prostate)?
A: > 100 µM

Q: And the TGI (EKVX NSCLC)?
A: > 100 µM

Q: What about the TGI (HCC-2998 colon) of the same compound?
A: > 100 µM

Q: And the TGI (HCT-116 colon)?
A: > 100 µM

Q: What about the TGI (HCT-15 colon) of the same compound?
A: > 100 µM

Q: And the TGI (HL-60(TB) leukemia)?
A: > 100 µM

Q: And the TGI (HOP-62 NSCLC)?
A: > 100 µM

Q: What about the TGI (HOP-92 NSCLC) of the same compound?
A: > 100 µM

Q: What about the TGI (HS 578T breast) of the same compound?
A: > 100 µM

Q: What about the TGI (HT29 colon) of the same compound?
A: > 100 µM

Q: And the TGI (IGROV1 ovarian)?
A: > 100 µM

Q: What about the TGI (K-562 leukemia) of the same compound?
A: > 100 µM

Q: And the TGI (KM12 colon)?
A: > 100 µM

Q: What about the TGI (LOX IMVI melanoma) of the same compound?
A: > 100 µM

Q: And the TGI (M14 melanoma)?
A: > 100 µM

Q: What about the TGI (MALME-3M melanoma) of the same compound?
A: > 100 µM

Q: What about the TGI (MCF7 breast) of the same compound?
A: > 100 µM

Q: And the TGI (MDA-MB-231 breast)?
A: > 100 µM

Q: What about the TGI (MDA-MB-435) of the same compound?
A: > 100 µM

Q: What about the TGI (MDA-N) of the same compound?
A: > 100 µM

Q: What about the TGI (MOLT-4 leukemia) of the same compound?
A: > 100 µM

Q: What about the TGI (NCI-H226 lung) of the same compound?
A: > 100 µM

Q: And the TGI (NCI-H23 lung)?
A: > 100 µM

Q: What about the TGI (NCI-H460 lung) of the same compound?
A: > 100 µM

Q: What about the TGI (NCI-H522 lung) of the same compound?
A: > 100 µM

Q: And the TGI (OVCAR-3 ovarian)?
A: > 100 µM

Q: And the TGI (OVCAR-4 ovarian)?
A: > 100 µM

Q: And the TGI (OVCAR-5 ovarian)?
A: > 100 µM

Q: What about the TGI (OVCAR-8 ovarian) of the same compound?
A: > 100 µM

Q: And the TGI (PC-3 prostate)?
A: > 100 µM

Q: What about the TGI (RPMI-8226 leukemia) of the same compound?
A: > 100 µM

Q: What about the TGI (SF-268 CNS) of the same compound?
A: > 100 µM

Q: What about the TGI (SF-295 CNS) of the same compound?
A: > 100 µM

Q: What about the TGI (SF-539 CNS) of the same compound?
A: > 100 µM

Q: What about the TGI (SK-MEL-2 melanoma) of the same compound?
A: > 100 µM

Q: What about the TGI (SK-MEL-28 melanoma) of the same compound?
A: > 100 µM

Q: And the TGI (SK-MEL-5 melanoma)?
A: > 100 µM

Q: And the TGI (SK-OV-3 ovarian)?
A: > 100 µM

Q: And the TGI (SNB-19 CNS)?
A: > 100 µM

Q: What about the TGI (SNB-75 CNS) of the same compound?
A: > 100 µM

Q: And the TGI (SR leukemia)?
A: > 100 µM

Q: What about the TGI (SW-620 colon) of the same compound?
A: > 100 µM

Q: What about the TGI (T-47D breast) of the same compound?
A: > 100 µM

Q: What about the TGI (TK-10 renal) of the same compound?
A: > 100 µM

Q: And the TGI (U251 CNS)?
A: > 100 µM

Q: And the TGI (UACC-257 melanoma)?
A: > 100 µM

Q: What about the TGI (UACC-62 melanoma) of the same compound?
A: > 100 µM

Q: And the TGI (UO-31 renal)?
A: > 100 µM
